# Patent US20160213635A1, “COMPOSITIONS USEFUL IN THE PREVENTION OR TREATMENT OF SKIN CANCER” (GIULIANI S.P.A., priority 2013, published 2016)
# How the values were obtained:
# [1] = system: primary cultures of human keratinocytes, NHKs; experiment: Cell viability after treatment with G01; assay type: cell-based; settings: eight different concentrations, 48±2 h, three NHKs cultures
# Procedure: The study is performed on primary cultures of human keratinocytes, NHKs. The cells (three different cultures of keratinocytesNHKs) were plated in the specific culture medium and maintained in culture for 24±2 h to allow adhesion to the plate. The cells were treated with eight different concentrations of the compound of the invention […] under evaluation, diluted in the culture medium, for 48±2 h. The values of cell viability for each concentration tested, resulting from the spectrophotometric reading, were compared with the value obtained from the control.
# [2] = system: primary cultures of human keratinocytes, NHKs; experiment: Cell viability (incorporation of NR) after pre-treatment with G01 and subsequent UV irradiation; assay type: cell-based; settings: pre-treatment 24±2 h; UVA 10 J/cm^2, UVB 25 mJ/cm^2; particularly 48 h after irradiation; particularly significant at 90 μM
# Procedure: The cells were plated in the specific culture medium and maintained in culture for 24±2 h to allow adhesion to the plate. The cells were treated for 24±2 h with the concentrations of the compound G01 under evaluation, selected based on the previous results. Subsequently, the cells in the plates identified as +UVA and +UVB were respectively exposed, in the irradiation medium, to doses of UVA of 10 J/cm^2 and UVB of 25 mJ/cm^2, while the control plate was maintained in the dark and at room temperature for a period of time equal to the irradiation time. The irradiation medium was then replaced with the culture medium. The cell viability was measured (incorporation of NR) 24±2 h and 48±2 h after the irradiation, following examination of the morphology of the cells under a microscope, in the absence and the presence of treatment with G01 and/or UVA/UVB irradiation. The cell viability values for each condition tested were compared with the value obtained from the control and plotted on a graph to highlight any differences between the various experimental conditions.
# NHKs cells [3] = experiment: ELISA CPDs determination after pre-treatment with G01 and subsequent UVB irradiation; assay type: cell-based, human; settings: pre-treatment 90 μM; UVB 80 mJ/cm^2; 6 h and 24 h
# Procedure: The NHKs cells were plated in the specific culture medium and maintained in culture for 24±2 h to allow adhesion to the plate. Then, the keratinocytes were treated for 24±2 h with the compound G01, in a concentration of 90 μM. Subsequently, the plates identified as +UVB and +G01/UVB were exposed, in the irradiation medium, to a UVB dose of 80 mJ/cm^2, while the control plates (Ctr) and those treated only with the compound under examination (G01) were maintained in the dark and at room temperature for a period of time equal to the irradiation time. The irradiation medium was then replaced with the culture medium. Based on the preliminary results obtained on a broader time range, post-treatment times of 6 h and 24 h were selected, after which the plates were processed according to the procedure described in the work instruction specific for the DNA extraction. The determination of the pyrimidine cyclobutane dimers, CPDs, was performed using a specific ELISA kit following the procedure described in the user manual.
# NHKs cells [4] = experiment: Flow cytometric (annexin V) assessment of apoptosis induced by UV irradiation and subsequent treatment with G01; assay type: cell-based, human; settings: post-treatment 90 μM; UVA 25 J/cm^2, UVB 80 mJ/cm^2; 24 h
# Procedure: The NHKs cells were plated in the specific culture medium and maintained in culture for 24±2 h to allow adhesion to the plate. Each experimental condition was plated in duplicate. Subsequently, the plates identified as +UVA, +G01/UVA, +UVB, and +G01/UVB were respectively exposed, in the irradiation medium, to doses of UVA of 25 J/cm^2 and UVB of 80 mJ/cm^2, while the control plates (Ctr) and those treated only with the compound under examination (G01) were maintained in the dark and at room temperature for a period of time equal to the irradiation time. The irradiation medium was then replaced with the culture medium containing the compound G01 in a concentration of 90 μM. Based on the preliminary results obtained on a broader time range, a post-treatment time of 24 h was selected, after which the plates were processed according to the procedure given in the user manual of the specific kit for annexin V flow cytometric analysis. The positivity for annexin V in each condition tested (treatment with the compound of the invention under examination and/or UVA/UVBirradiation) was compared with the positivity in the control cells.
# NHKs cells [5] = experiment: Western Blot assessment (non-cleaved caspase 3) of apoptosis induced by UV irradiation and subsequent treatment with G01; assay type: cell-based, human; settings: post-treatment 90 μM; UVA 25 J/cm^2, UVB 80 mJ/cm^2; 24 h
# Procedure: The NHKs cells were plated in the specific culture medium and maintained in culture for 24±2 h to allow adhesion to the plate. Subsequently, the plates identified as +UVA, +G01/UVA, +UVB, and +G01/UVB were respectively exposed, in the irradiation medium, to doses of UVA of 25 J/cm^2 and UVB of 80 mJ/cm^2, while the control plates (Ctr) and those treated only with the compound under examination (G01) were maintained in the dark and at room temperature for a period of time equal to the irradiation time. The irradiation medium was then replaced with the culture medium containing the compound G01, in a concentration of 90 μM. Based on the preliminary results obtained on a broader time range, a post-treatment time of 24 h was selected, after which the plates were processed for Western Blot protein determination. The protein expression of non-cleaved caspase 3 in each condition tested (treatment with the compound G01 under examination and/or UVA/UVB irradiation) was compared with the expression in the control cells.
# NHKs cells [6] = experiment: ELISA CPDs determination after UVB irradiation and subsequent treatment with G01; assay type: cell-based, human; settings: post-treatment 90 μM; UVB 25 mJ/cm^2; 6 h and 24 h
# Procedure: The NHKs cells were plated in the specific culture medium and maintained in culture for 24±2 h to allow adhesion to the plate. Then, the plates identified as +UVB and +G01/UVB were respectively exposed, in the irradiation medium, to a UVB dose of 25 mJ/cm^2, while the control plates (Ctr) and those treated only with the compound under examination (G01) were maintained in the dark and at room temperature for a period of time equal to the irradiation time. The irradiation medium was then replaced with the culture medium containing the compound G01, in a concentration of 90 μM. Based on the preliminary results obtained on a broader time range, post-treatment times of 6 h and 24 h were selected, after which the plates were processed according to the procedure described in the work instruction specific for the DNA extraction. The CPDs determination was performed using a specific ELISA kit following the procedure described in the user manual.
# NHKs cells [7] = experiment: ELISA 8-OHdG determination after UVA irradiation and subsequent treatment with G01; assay type: cell-based, human; settings: post-treatment 90 μM; UVA 10 J/cm^2; both post-treatment times 6 h and 24 h; vs cells only irradiated
# Procedure: The NHKs cells were plated in the specific culture medium and maintained in culture for 24±2 h to allow adhesion to the plate. Then, the plates identified as +UVA and +UVA/G01 post were respectively exposed, in the irradiation medium, to a UVA dose of 10 J/cm^2. The irradiation medium was then replaced with the culture medium containing the compound of the invention G01, in a concentration of 90 μM. Based on preliminary results obtained on a broader time range, post-treatment times of 6 h and 24 h were selected, after which the plates were processed according to the procedure described in the work instruction specific for the DNA extraction. The determination of 8-OHdG, marker of DNA oxidative damage induced by UVA, was performed using a specific ELISA kit following the procedure described in the user manual.
smiles,measurement,setting,value
"C/C=C/C=C/C=C/C(=O)O [G01, 2,4,6-trans-octatrienoic acid]",cell viability (cellular toxicity) vs control,[1],absence of cellular toxicity
same,cell viability after UVA/UVB irradiation,[2],general protective effect of cell viability
same,CPDs adducts (pyrimidine cyclobutane dimers),NHKs cells [3],promote the removal of CPDs adducts
same,apoptosis (positivity for annexin V) induced by UVA and UVB,NHKs cells [4],reduce the apoptosis
same,caspase 3 activation (protein expression of non-cleaved caspase 3),NHKs cells [5],reduce caspase 3 activation
same,CPDs products (pyrimidine cyclobutane dimers),NHKs cells [6],promote the removal of CPDs products
same,amount of 8-OHdG produced by UVA radiation,NHKs cells [7],significant reduction
